# Measured values published in patent US11325937B2, “Glycoside compound and preparation method therefor, composition, application, and intermediate” (SHANGHAI HUTCHISON PHARMACEUTICALS LIMITED, priority 2018, dated 2022).
# System: HUVEC-12 endothelial cells
# Assay: Migration of HUVEC-12 endothelial cells (scratch test)
# Type: cell-based, Human
# Experimental: The experiment included seven groups. In Group 1, HUVEC-12 endothelial cells (purchased from Shanghai RongChuang Biotech Co., Ltd.) were treated directly with simple DMEM medium (Gibcol, Shanghai) containing 10% FBS (SERANA, Germany) (control). In Group 2, the endothelial cells were treated with the supernatant obtained 24 h after macrophages were cultured with DMEM medium containing 10% FBS (s-control). In Group 3, the endothelial cells cultured with DMEM medium containing 10% FBS were treated directly with TG-028 (TG-028, 10 μM). In Group 4, the endothelial cells were treated with the supernatant obtained after macrophages cultured with DMEM medium containing 10% FBS were treated and co-incubated with TG-028 for 24 h (s-TG-028, […]). In Group 5, the endothelial cells cultured with DMEM medium containing 10% FBS were treated directly with Cpd-18 (Salvianolate) (cpd-18, 10 μM). In Group 6, the endothelial cells were treated with the supernatant obtained after macrophages cultured with DMEM medium containing 10% FBS were treated and co-incubated with Cpd-18 (Salvianolate, 10 μM) for 24 h (s-cpd18). In Group 7, the endothelial cells cultured with DMEM medium containing 10% FBS were treated directly with VEGFD (Recombinant Human VEGF165, 10 ng/mL).
# Human umbilical vein endothelial cells HUVEC-12 in logarithmic growth phase were counted, adjusted to a cell density of 5×10^5 cells/mL, and inoculated in 1 mL per well in a 6-well plate. The cells were conventionally cultured in an incubator to form monolayer cells of 90% confluency. The 6-well plate fully plated with cells was scratched perpendicular to the cell surface with a 200 μL pipette tip from one end to the other end of the well. The scratches were made transversely with the pipette tip being as perpendicular as possible to the bottom of the plate. […]
# The medium was aspirated and the cells scratched off were washed off with PBS. […] The migration of endothelial cells was detected according to the cell scratch method and the relative migration rate was calculated. […]
compound,measurement,setting,value
COc1ccc(CCCCO[C@@H]2O[C@H](CO)[C@@H](O)[C@H](O)[C@H]2O)cc1 [TG-028],effect on migration of endothelial cells (in words),"HUVEC-12 treated with supernatant of macrophages co-incubated 24 h with compound, 10 μM (s- groups)",comparable effect on the migration of endothelial cells as VEGF
same,effect on migration of endothelial cells (in words),"direct treatment of HUVEC-12, 24 h, compounds 10 μM, VEGF165 10 ng/mL, vs control medium",significant effect on the migration of endothelial cells
